Measurements from the supplement of paper PMC10307832.

Compound: CC(C)(C)c1nc(-c2cccc(NS(=O)(=O)c3c(F)cccc3F)c2F)c(-c2ccnc(N)n2)s1 [Dabrafenib] + O=C(CCCCCCC(=O)Nc1ccccc1)NO [Vorinostat] (partner 1 µM)
Assay: relative viability (nuclei count vs DMSO), 5 days (fraction); higher = more cells survive
Details: first compound 0.003 µM
Outline: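 Five library-drug doses in √10 steps were combined with a fixed anchor-drug dose, or a single drug was given alone, by pin tool to lung cancer cell lines in 1536-well plates the day after seeding. Nuclei were stained and counted after 5 days. Relative viability is the nuclei count in treated wells over that in vehicle wells, taken as the median of duplicate plates.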

**Q.** With LCLC-103H as the cell line, how does the relative viability read?
**A.** 0.627

**Q.** How did the relative viability turn out when HCC-827 was run?
**A.** 0.423

**Q.** How did the relative viability turn out when COR-L 105 was run?
**A.** 0.779

**Q.** For NCI-H2126, which relative viability is on record?
**A.** 0.693

**Q.** Which relative viability does the source give for NCI-H647 here?
**A.** 0.814

**Q.** Which relative viability does the source give for HCC-44 here?
**A.** 1.07

**Q.** NCI-H1651 was tested. Which relative viability did it give?
**A.** 0.567

**Q.** Which relative viability does the source give for NCI-H1755 here?
**A.** 0.849

**Q.** How did the relative viability turn out when HOP-62 was run?
**A.** 0.199

**Q.** How did the relative viability turn out when NCI-H1650 was run?
**A.** 0.547

**Q.** ChaGo-K-1 was tested. Which relative viability did it give?
**A.** 0.518

**Q.** For A-427, which relative viability is on record?
**A.** 0.793

**Q.** Which relative viability does the source give for NCI-H1648 here?
**A.** 0.459

**Q.** For HCC-366, which relative viability is on record?
**A.** 0.365

Same assay, conditions: first compound 0.009487 µM

**Q.** Which relative viability does the source give for ABC-1 here?
**A.** 1.37

**Q.** With CAL-12T as the cell line, how does the relative viability read?
**A.** 0.581

**Q.** How did the relative viability turn out when NCI-H1944 was run?
**A.** 0.529

**Q.** For NCI-H2085, which relative viability is on record?
**A.** 1.01

**Q.** For IA-LM, which relative viability is on record?
**A.** 0.957

**Q.** For NCI-H2228, which relative viability is on record?
**A.** 0.53

**Q.** With NCI-H441 as the cell line, how does the relative viability read?
**A.** 0.725

**Q.** With NCI-H522 as the cell line, how does the relative viability read?
**A.** 1.06

**Q.** Which relative viability does the source give for EMC-BAC-2 here?
**A.** 0.459

**Q.** NCI-H2170 was tested. Which relative viability did it give?
**A.** 0.798

**Q.** Which relative viability does the source give for UMC-11 here?
**A.** 0.362

**Q.** Which relative viability does the source give for NCI-H650 here?
**A.** 0.346

**Q.** LCLC-103H was tested. Which relative viability did it give?
**A.** 0.772

**Q.** For NCI-H596, which relative viability is on record?
**A.** 0.723

**Q.** Which relative viability does the source give for HCC-827 here?
**A.** 1.01

**Q.** How did the relative viability turn out when COR-L 105 was run?
**A.** 0.975

**Q.** NCI-H2126 was tested. Which relative viability did it give?
**A.** 0.916

**Q.** Which relative viability does the source give for NCI-H647 here?
**A.** 0.529

**Q.** For LOU-NH91, which relative viability is on record?
**A.** 0.941

**Q.** HCC-78 was tested. Which relative viability did it give?
**A.** 0.507

**Q.** For HCC-44, which relative viability is on record?
**A.** 1.06

**Q.** How did the relative viability turn out when NCI-H1651 was run?
**A.** 0.533

**Q.** How did the relative viability turn out when NCI-H1755 was run?
**A.** 0.726

**Q.** How did the relative viability turn out when HOP-62 was run?
**A.** 0.806

**Q.** Which relative viability does the source give for PC-14 here?
**A.** 0.829

**Q.** Which relative viability does the source give for NCI-H1650 here?
**A.** 0.528

**Q.** With ChaGo-K-1 as the cell line, how does the relative viability read?
**A.** 0.727

**Q.** With A-427 as the cell line, how does the relative viability read?
**A.** 0.962

**Q.** For NCI-H1648, which relative viability is on record?
**A.** 0.429

**Q.** How did the relative viability turn out when HCC-366 was run?
**A.** 0.286

Same assay, conditions: first compound 0.03 µM

**Q.** Which relative viability does the source give for ABC-1 here?
**A.** 1.19

**Q.** CAL-12T was tested. Which relative viability did it give?
**A.** 0.804

**Q.** NCI-H1944 was tested. Which relative viability did it give?
**A.** 0.508

**Q.** NCI-H2085 was tested. Which relative viability did it give?
**A.** 0.801

**Q.** With IA-LM as the cell line, how does the relative viability read?
**A.** 0.983

**Q.** Which relative viability does the source give for NCI-H2228 here?
**A.** 0.656

**Q.** Which relative viability does the source give for NCI-H441 here?
**A.** 0.994

**Q.** For NCI-H522, which relative viability is on record?
**A.** 0.864

**Q.** For EMC-BAC-2, which relative viability is on record?
**A.** 0.324

**Q.** NCI-H2170 was tested. Which relative viability did it give?
**A.** 0.703

**Q.** How did the relative viability turn out when UMC-11 was run?
**A.** 0.409

**Q.** How did the relative viability turn out when NCI-H650 was run?
**A.** 0.408

**Q.** With LCLC-103H as the cell line, how does the relative viability read?
**A.** 0.576

**Q.** Which relative viability does the source give for NCI-H596 here?
**A.** 0.416

**Q.** HCC-827 was tested. Which relative viability did it give?
**A.** 0.785

**Q.** Which relative viability does the source give for COR-L 105 here?
**A.** 0.806

**Q.** For NCI-H2126, which relative viability is on record?
**A.** 0.767

**Q.** NCI-H647 was tested. Which relative viability did it give?
**A.** 0.445

**Q.** Which relative viability does the source give for LOU-NH91 here?
**A.** 0.964

**Q.** HCC-78 was tested. Which relative viability did it give?
**A.** 0.426

**Q.** HCC-44 was tested. Which relative viability did it give?
**A.** 1.28

**Q.** Which relative viability does the source give for NCI-H1651 here?
**A.** 0.573

**Q.** For NCI-H1755, which relative viability is on record?
**A.** 0.558

**Q.** Which relative viability does the source give for HOP-62 here?
**A.** 0.555

**Q.** With PC-14 as the cell line, how does the relative viability read?
**A.** 0.737

**Q.** For NCI-H1650, which relative viability is on record?
**A.** 0.711

**Q.** With ChaGo-K-1 as the cell line, how does the relative viability read?
**A.** 0.663

**Q.** For A-427, which relative viability is on record?
**A.** 0.787

**Q.** Which relative viability does the source give for HCC-366 here?
**A.** 0.29

Same assay, conditions: first compound 0.09487 µM

**Q.** Which relative viability does the source give for ABC-1 here?
**A.** 1.25

**Q.** CAL-12T was tested. Which relative viability did it give?
**A.** 0.679

**Q.** Which relative viability does the source give for NCI-H1944 here?
**A.** 0.659

**Q.** For NCI-H2085, which relative viability is on record?
**A.** 0.79

**Q.** For IA-LM, which relative viability is on record?
**A.** 0.829

**Q.** Which relative viability does the source give for NCI-H2228 here?
**A.** 0.381

**Q.** NCI-H441 was tested. Which relative viability did it give?
**A.** 0.804

**Q.** How did the relative viability turn out when NCI-H522 was run?
**A.** 0.815

**Q.** With EMC-BAC-2 as the cell line, how does the relative viability read?
**A.** 0.281

**Q.** Which relative viability does the source give for NCI-H2170 here?
**A.** 0.647

**Q.** With UMC-11 as the cell line, how does the relative viability read?
**A.** 0.473

**Q.** NCI-H650 was tested. Which relative viability did it give?
**A.** 0.241

**Q.** LCLC-103H was tested. Which relative viability did it give?
**A.** 0.765

**Q.** NCI-H596 was tested. Which relative viability did it give?
**A.** 0.725

**Q.** COR-L 105 was tested. Which relative viability did it give?
**A.** 0.888

**Q.** How did the relative viability turn out when NCI-H2126 was run?
**A.** 0.888

**Q.** With NCI-H647 as the cell line, how does the relative viability read?
**A.** 0.401

**Q.** How did the relative viability turn out when LOU-NH91 was run?
**A.** 0.941

**Q.** HCC-78 was tested. Which relative viability did it give?
**A.** 0.511

**Q.** HCC-44 was tested. Which relative viability did it give?
**A.** 1.05

**Q.** Which relative viability does the source give for NCI-H1651 here?
**A.** 0.419

**Q.** With NCI-H1755 as the cell line, how does the relative viability read?
**A.** 0.771

**Q.** For HOP-62, which relative viability is on record?
**A.** 0.341

**Q.** For PC-14, which relative viability is on record?
**A.** 0.757

**Q.** NCI-H1650 was tested. Which relative viability did it give?
**A.** 0.608

**Q.** For ChaGo-K-1, which relative viability is on record?
**A.** 0.694

**Q.** For A-427, which relative viability is on record?
**A.** 0.762

**Q.** With NCI-H1648 as the cell line, how does the relative viability read?
**A.** 0.499

**Q.** HCC-366 was tested. Which relative viability did it give?
**A.** 0.296

Same assay, conditions: first compound 0.3 µM

**Q.** Which relative viability does the source give for ABC-1 here?
**A.** 1.04

**Q.** Which relative viability does the source give for CAL-12T here?
**A.** 0.795

**Q.** For NCI-H1944, which relative viability is on record?
**A.** 0.483

**Q.** With NCI-H2085 as the cell line, how does the relative viability read?
**A.** 0.748

**Q.** With IA-LM as the cell line, how does the relative viability read?
**A.** 1.07

**Q.** Which relative viability does the source give for NCI-H2228 here?
**A.** 0.877

**Q.** For NCI-H441, which relative viability is on record?
**A.** 0.839

**Q.** With NCI-H522 as the cell line, how does the relative viability read?
**A.** 0.93

**Q.** EMC-BAC-2 was tested. Which relative viability did it give?
**A.** 0.328

**Q.** NCI-H2170 was tested. Which relative viability did it give?
**A.** 0.732

**Q.** UMC-11 was tested. Which relative viability did it give?
**A.** 0.454

**Q.** With NCI-H650 as the cell line, how does the relative viability read?
**A.** 0.218

**Q.** For LCLC-103H, which relative viability is on record?
**A.** 0.816

**Q.** How did the relative viability turn out when NCI-H596 was run?
**A.** 0.515

**Q.** How did the relative viability turn out when HCC-827 was run?
**A.** 0.79

**Q.** Which relative viability does the source give for COR-L 105 here?
**A.** 0.911

**Q.** NCI-H2126 was tested. Which relative viability did it give?
**A.** 0.993

**Q.** How did the relative viability turn out when NCI-H647 was run?
**A.** 0.524

**Q.** Which relative viability does the source give for LOU-NH91 here?
**A.** 1.07

**Q.** With HCC-78 as the cell line, how does the relative viability read?
**A.** 0.616

**Q.** How did the relative viability turn out when HCC-44 was run?
**A.** 1.08

**Q.** NCI-H1651 was tested. Which relative viability did it give?
**A.** 0.544

**Q.** For NCI-H1755, which relative viability is on record?
**A.** 0.728

**Q.** With HOP-62 as the cell line, how does the relative viability read?
**A.** 0.5

**Q.** How did the relative viability turn out when PC-14 was run?
**A.** 0.73

**Q.** Which relative viability does the source give for NCI-H1650 here?
**A.** 0.659

**Q.** Which relative viability does the source give for ChaGo-K-1 here?
**A.** 0.754

**Q.** A-427 was tested. Which relative viability did it give?
**A.** 0.866

**Q.** How did the relative viability turn out when NCI-H1648 was run?
**A.** 0.421

**Q.** With HCC-366 as the cell line, how does the relative viability read?
**A.** 0.247
